Data published in patent US20250100962A1 (CITY OF HOPE, priority 2023, published 2025).

How the values were obtained:
C3H10T1/2 cells = experiment: Clock and Wnt gene/protein expression in C3H10T1/2 cells; format: cell-based; conditions: for β-catenin protein level during adipogenic differentiation: 1 μM, before and after adipogenic induction; for mRNA levels of Wnt ligands and receptors / clock gene expression: 10T1/2 cells; for mRNA levels of Wnt ligands and receptors: 6 hours; for clock gene expression: RT-qPCR
Description: Immunoblot analysis. Total protein was extracted using lysis buffer containing 3% NaCl, 5% Tris-HCl, 10% Glycerol, 0.5% Triton X-10 in MilliQ water with protease inhibitor cocktail. 20-40 μg of total protein was resolved on 10% SDS-PAGE gels followed by immunoblotting on PVDF membranes (Bio-rad). Membranes were developed by chemiluminescence (SuperSignal West Pico, Pierce Biotechnology) and signals were obtained via a chemiluminescence imager (Amersham Imager 680, GE Biosciences).
RNA extraction and RT-qPCR analysis. PureLink RNA Mini Kit (Invitrogen) were used to isolate total RNA from cells. cDNA was generated using Revert Aid RT kit (ThermoFisher) and quantitative PCR was performed using SYBR Green Master Mix (Thermno Fisher) in triplicates on ViiA 7 Real-Time PCR System (Applied Biosystems). Relative expression levels were determined using the comparative Ct method with normalization to 361B4 as internal control.

C2C12 myoblasts [1] = experiment: Myogenic differentiation of C2C12 myoblasts; format: cell-based, mouse; conditions: for MyHC-positive mature myotubes (immunofluorescence): C2C12 differentiation day 5-7
Description: Pictures were taken every day to monitor morphological progression, and proteins and RNA samples were collected on days indicated.
C2C12, C2C12 Bmal1 KD and C2C12 Scrambled control (SC) myoblasts were seeded at Day −1 at 2×105 concentration on 12 wells plates and maintained in 10% FBS until 80% confluency and treated with indicated compounds and controls in 2% FBS DMEM media to induce differentiation on Day 0. On days 3, 5 and 7 cells were fixed with 4% paraformaldehyde (from 37% Formaldehyde Baker Analyzed) and kept at 4° C. in PBS. Cells were permeabilized with Permeabilization solution of 0.5% Triton X-100 (Fisher Bioreagents CN: 9002-93-1) in PBS and blocked with Blocking solution of 1% BSA (Fisher Bioreagents CN:9048-46-8) in PBS. Primary antibodies were diluted in Washing solution of 0.01% Triton X-100 (Fisher Bioreagents CN: 9002-93-1) in PBS and left overnight at 4° C. Cells were then incubated with secondary antibodies in Washing solution at room temperature for 1 h. 1 μg/ml 4′,6′-diamidine-2′-phenylindole dihydrochloride (DAPI) was used to label for nuclei. […] To quantify the proliferation of myoblast, when needed, cells were treated with 1 μg/ml of EdU for 3 h before fixation. Detection of EdU was performed with Click-iT EdU Alexa Fluor 488 Imaging Kit before applying the immunofluorescence staining as described above.

[2] = system: human primary myoblasts derived from DMD patients; experiment: MTT cell viability of human DMD primary myoblasts; format: cell-based
Description: (§1) Cells were seeded at 5×10^4 concentration in 100 μl culture medium into 96 wells flat bottom microplates and treated after 24 h with desired compounds and controls. After desired incubation periods, cells were treated with MTT labeling reagent 1× (MTT (3-[4,5-dimethylthiazol-2-yl]-2,5-diphenyltetrazolium bromide labeling reagent, 5 mg/ml in PBS, Roche Cell Proliferation Kit I (MTT)) and Solubilization buffer 1× (10% SDS in 0.01 M HCl and left overnight. Next morning absorbance was measured at 570 nm and 700 nm on microplate (ELISA) reader (TECAN infinite M200pro). The mean and standard deviation values were calculated for each well and graphed.
(§2) FIGS. 41A-41D. Effect of Chlorhexidine (CHX) and CM002 treatment on viability of mouse and human myoblasts. To determine potential toxic effects of CHX and CM002, we treated mouse C2C12 myoblast cell line with increasing concentrations from 0.2-5 μM for 48 hours and determined cell viability using the MTT assay (FIG. 41A). […] Considering the inflammatory milieus in dystrophic muscles, we further tested the tolerance of myoblasts to these molecules in the presence of inflammatory stimuli, a cytokine cocktail (CC) consisted of 10 ng/mL IL-1β, 100 ng/mL IFN-γ and 25 ng/mL of TNF-α (FIG. 41B). […] Lastly, human primary myoblasts derived from Duchene Muscular Dystrophy (DMD) patients were used to determine their tolerance to these compounds.

[3] = system: primary bone marrow-derived macrophages; experiment: NLRP3 inflammasome and CHOP expression in primary bone marrow-derived macrophages; format: cell-based; conditions: for NLRP3 and CHOP with LPS stimulation: LPS challenge; for NLRP3 expression, basal unstimulated: immunoblot
From the text: FIGS. 46A-46D. […] Chronic inflammation in dystrophic muscle, due to the persistent muscle damage with sustained degeneration and regeneration cycles, is a significant component of the pathogenic characteristics of muscular dystrophy contributing to muscle wasting. We thus determined potential ameliorative effects of CHX and CM002 on muscle inflammation in the mdx mice.

C57/BL6 wild-type mice = experiment: Cardiotoxin-induced acute muscle injury, intramuscular injection into TA muscle; format: in vivo, mouse; conditions: for eMyHC staining (new myofiber formation): after cardiotoxin injury, local intramuscular injection
From the text: FIGS. 42A-42B. CHX and CM002 promote nascent myofiber formation upon acute muscle injury. To determine whether the effect of CHX and CM002 on promoting myogenesis leads to improved muscle regeneration in vivo, we tested local intramuscular injection into TA muscle following acute injury by cardiotoxin in normal C57/BL6 wild-type mice. […] Collectively, these findings indicate that these clock-activating molecules are capable of inducing myogenic response via local administration leading to sustained new myofiber formation following acute muscle injury.

C2C12 myoblasts [4] = experiment: EdU proliferation assay in C2C12 myoblasts; format: cell-based, mouse
Description: Cells were seeded at 0.2×10^5 concentration and treated with desired compounds and controls overnight. The seeding density was decided after trying several densities and choosing the one that after 24 h lead to visible, not clumping cells. 10 μM 5-ethynyl-2′-deoxyuridine (EdU) incorporation was performed during 4 h according to the kit protocol and detected by Click-iT Imaging Kit with Alexa 488 Fluorophore (Invitrogen). 1 μg/ml 4′,6′-diamidine-2′-phenylindole dihydrochloride (DAPI) was used to label for nuclei. Total number of EdU+ cells was counted from 8 representative fields at 20× and the rate of proliferation was calculated as percentage of EdU+/DAPI.

[5] = system: mdx mouse primary myoblasts; experiment: MTT cell viability of mdx mouse primary myoblasts; format: cell-based
Description: as §1, §2

[6] = system: dystrophin-deficient mdx primary myoblasts; experiment: Myogenic differentiation of mdx primary myoblasts (MyHC staining); format: cell-based, mouse; conditions: for mature myofiber/myocyte formation (MyHC staining): 2% FBS, vs DMSO
From the text: FIGS. 16A-16B. Pro-myogenic effect of chlorhexidine on dystrophin-deficient mdx primary myoblasts. FIG. 16A: We used primary myoblasts isolated from male mdx mice as a cellular model to test the effect of CHX on myogenesis. […] Both of the pro-myogenic and proliferative effects of CHX observed in mdx primary myoblasts were consistent with prior findings from C2C12 myoblasts. Additional validations of these effects are on-going using myoblasts derived from human DMD patients.
FIGS. 22A-22B. […] Using primary myoblasts isolated from mdx mice, we determined CM002 effect on myogenesis in this dystrophic disease cellular model. […] Similar as shown in C2C12 myoblasts, this effect was stronger than that of CHX.

In the case of `[H]/N=C(\N/C(=N/[H])NCCCCCCNC(=N)NC(=N)Nc1ccc(Cl)cc1)Nc1ccc(Cl)cc1` [CHX, chlorhexidine], the “β-catenin protein level during adipogenic differentiation” value (C3H10T1/2 cells) is reported as “sufficient to re-activate the lost b-catenin protein level during adipogenic differentiation”, the “mRNA levels of Wnt ligands and receptors” value (C3H10T1/2 cells) is reported as “induced the mRNA levels of Wnt1, Wnt10a, Fzd2, Fzd5” and the clock gene expression (C3H10T1/2 cells) is reported as “inductions of Pers and Crys”. The myotube hypertrophy (C2C12 myoblasts [1]; 0.5 μM, Day 7) was “induced notable myotube hypertrophy”, the “morphological progression of myotube formation” value (C2C12 myoblasts [1]; 2% serum differentiation, phase-contrast) was “markedly accelerated the morphological progression of myotube formation” and the “induction of Myf5 and eMyhc in Bmal1-deficient myoblasts” value (C2C12 myoblasts [1]; BMKD myoblasts) was “loss of CHX induction of Myf5 and eMyhc”. The “differentiation of Bmal1 shRNA (BMKD) myoblasts” value (C2C12 myoblasts [1]; BMKD vs SC) was “failed to augment BMKD myoblast differentiation”, the “MyHC-positive mature myotubes (immunofluorescence)” value (C2C12 myoblasts [1]) was “increased numbers of MyHC-positive mature myotubes” and the “effective concentration range, pro-myogenic activities” value (C2C12 myoblasts [1]; C2C12 myoblasts) was 0.2 to 0.5 µM. For the same compound, the toxicity during differentiation (C2C12 myoblasts [1]; CHX at 2 and 5 μM) was “appeared to be toxic to myoblasts with cell death during differentiation”, the “Myf5, Myod1 and eMyhc expressions” value (C2C12 myoblasts [1]; RT-qPCR) was “significantly induced by 0.5 μM CHX with a tendency toward higher expression 0.2 μM” and the “Myf5 and Myogenin proteins” value (C2C12 myoblasts [1]; day 3 and day 5 of differentiation, immunoblot) was “early induction of myogenic factors Myf5 and Myogenin proteins”. The “concentration up to which viability is not significantly compromised” value ([2]; with cytokine cocktail) was “up to 5 μM”, the “concentration inducing CHOP (ER stress marker)” value [3] was no less than 1000 nM and the “NLRP3 and CHOP with LPS stimulation” value [3] was “failed to inhibit NLRP3 inflammasome and displayed stimulatory effect at high concentrations accompanied with CHOP induction”. For the same compound, the “NLRP3 expression, basal unstimulated” value [3] was “able to attenuate its expression”, the Pax7 protein (C57/BL6 wild-type mice; CTX-injected TA muscle) was “robustly increased” and the “eMyHC staining (new myofiber formation)” value (C57/BL6 wild-type mice) was “substantial amount of eMyHC staining indicative of sustained nascent myofiber regeneration”. The “increase of proliferation (EdU incorporation)” value (C2C12 myoblasts [4]; both concentrations tested, 24 hours) was roughly 40%, the “concentration causing cell death” value ([5]; with cytokine cocktail) was no less than 500 nM and the “pro-myogenic effect in Bmal1-deficient (BMKO/mdx) primary myoblasts” value ([6]; day 3 of differentiation) was “abolished in Bmal1-deficient mdx primary myoblasts”. The “mature myofiber/myocyte formation (MyHC staining)” value ([6]; day 3 of differentiation) was “significantly elevated formation of mature myofibers”.
`CCCCCC/C=N/C(=N)NC(=N)Nc1ccc(Cl)cc1` [CM002] was tested, and the “β-catenin protein level during adipogenic differentiation” value (C3H10T1/2 cells) was “partially reverse the decline of β-catenin level at the differentiated state”, the “mRNA levels of Wnt ligands and receptors” value (C3H10T1/2 cells) was “significant induction of Wnt ligands including Wnt1 and Wnt10a transcripts” and the clock gene expression (C3H10T1/2 cells) was “induction of core clock transcription activators, CLOCK and Bmal1, together with up-regulation of its direct transcriptional target within the molecular clock loop, Nr1d1”. For the same compound, the “MyHC-positive mature myotubes (immunofluorescence)” value (C2C12 myoblasts [1]) was “enhanced differentiation induced by 0.5 μM CM002 than CHX with strongest effect on promoting myotube formation observed at CM002 at 1 μM”, the Myogenesis (C2C12 myoblasts [1]; Table 1 summary of CHX analogs) was “Enhanced” and the “cell death at 5 μM” value ([2]; human, 5 μM) was “displaying sensitivity to cell death by CM002 treatment at this concentration”. The “NLRP3 and CHOP with LPS stimulation” value [3] was “suppressed NLRP3 in the presence of LPS without inducing CHOP”, the “NLRP3 expression, basal unstimulated” value [3] was “able to attenuate its expression” and the “MyoD, Myf5 and Myogenin levels” value (C57/BL6 wild-type mice; CTX-injected TA muscle) was “elevated levels of MyoD, Myf5 and Myogenein”. The Pax7 protein (C57/BL6 wild-type mice; CTX-injected TA muscle) was “robustly increased”, the “eMyHC staining (new myofiber formation)” value (C57/BL6 wild-type mice) was “substantial amount of eMyHC staining indicative of sustained nascent myofiber regeneration” and the “proliferation (EdU incorporation)” value (C2C12 myoblasts [4]; 4 hours, 0.5 and 1 μM) was “significantly increased proliferation of C2C12 myoblasts”. The “concentration up to which cells remain viable” value ([5]; mdx, mouse) was “up to 1 μM”, the “cell death at 2.5 μM” value ([5]; mdx, mouse, 2.5 μM) was “significantly less cell death at 2.5 μM” and the “myotube fusion, cells seeded at low density” value ([6]; 1 μM vs 0.5 μM, day 3) was “more advanced myotube fusion than that of 0.5 μM”. The “mature myofiber/myocyte formation (MyHC staining)” value ([6]; day 3 of differentiation) was “significantly enhanced mature myocyte formation induced by 0.5 μM CM002 treatment”.
